Results as given in BindingDB's records for doi:10.1016/0960-894X(96)00323-X (1996).

Assay: Inhibition of Phosphodiesterase 5 from human corpus cavernosum

| IC50 [µM] | Structure (SMILES) |
| --- | --- |
| 0.019 | CCCc1nn(C)c2c(=O)[nH]c(-c3cc(S(=O)(=O)N4CCN(CCO)CC4)ccc3OCC)nc12 [5-{2-Ethoxy-5-[4-(2-hydroxy-ethyl)-piperazine-1-sulfonyl]-phenyl}-1-methyl-3-propyl-1,6-dihydro-pyrazolo[4,3-d]pyrimidin-7-one] |
| 4.5 | CCCc1[nH]nc2c(=O)[nH]c(-c3ccccc3)nc12 [5-Phenyl-3-propyl-1,6-dihydro-pyrazolo[4,3-d]pyrimidin-7-one] |
| 0.0021 | CCCc1nn(C)c2c(=O)[nH]c(-c3cc(S(=O)(=O)N4CCN(C(N)=O)CC4)ccc3OCC)nc12 [4-[4-Ethoxy-3-(1-methyl-7-oxo-3-propyl-6,7-dihydro-1H-pyrazolo[4,3-d]pyrimidin-5-yl)-benzenesulfonyl]-piperazine-1-carboxylic acid amide] |
| 1 | CCCc1[nH]nc2c(=O)[nH]c(-c3ccccc3O)nc12 [5-(2-Hydroxy-phenyl)-3-propyl-1,6-dihydro-pyrazolo[4,3-d]pyrimidin-7-one] |
